# Patent publication US20240350481A1, “USE OF N-MYRISTOYL TRANSFERASE (NMT) INHIBITORS IN THE TREATMENT OF CANCER, AUTOIMMUNE DISORDERS, AND INFLAMMATORY DISORDERS” (PACYLEX PHARMACEUTICALS INC., priority 2020, published 2024)
# Legend:
# BL2 cells = assay: Click chemistry, total protein myristoylation; type: cell-based; conditions: 1 hr treatment
# Protocol: Protein from the resulting cell lysates were reacted with 100 μM azido-biotin using click chemistry and processed as described in Yap et al.^47 and Perinpanayagam et al.^33
# DOHH2 tumors = assay: DOHH2 xenograft, tumor growth; type: in vivo, mouse
# Protocol: DOHH2 xenograft study at Charles River's facility: […] On Day 1 of the study, animals were given a rehydration solution ad libitum in an effort to reduce dehydration during the dosing phase of the study. […] The dose volume was 10 mL/kg.
# [1] = test system: hematological cancer cell lines; assay: ChemPartner cell line screen, CellTiter Blue; type: cell-based; conditions: 72 h; 3 days of treatment; read-out: median IC50
# Protocol: (§1) 131 cell lines were seeded in 96-well plate, black wall, tissue culture treated (from Corning, Cat.3904) and cultured following ATCC formulation. Cell viability after 72 hrs and 144 hrs was measured using Cell Titer Blue Viability Assay (from Promega, Cat. G8081, Lot. No. 0000190181) and fluorescence at 560/590 nm was recorded with Enspire (PerkinElmer). EC50 was calculated using XLfit software (5.5).
# [2] = test system: cell lines originating from solid tumors; assay: ChemPartner cell line screen, CellTiter Blue; type: cell-based; conditions: 72 h; 3 days of treatment; 10 μM is the highest dose tested; read-out: median IC50
# Protocol: as §1
# BL2 xenografts = assay: BL2 xenograft, tumor growth; type: in vivo, mouse
# Description: BL2 xenograft study at Jackson Laboratory: One hundred five (105) 6 week old female NOD.CB17-Prkdc scid/J (NOD scid, Stock #001303) mice were transferred to the in vivo research laboratory in Sacramento, CA. The mice were ear notched for identification and housed in individually and positively ventilated polysulfone cages with HEPA filtered air at a density of 5 mice per cage. Initially cages were changed every two weeks. The animal room was lighted entirely with artificial fluorescent lighting, with a controlled 12 hour light/dark cycle (6 am to 6 pm light). The normal temperature and relative humidity ranges in the animal rooms were 20-26° C. and 30-70%, respectively. The animal rooms were set to have up to 15 air exchanges per hour. Filtered tap water, acidified to a pH of 2.5 to 3.0, and standard lab chow were provided ad libitum.
# (§2) The dose volume was 10 mL/kg.
# TGI (%)=(Vcontrol−Vtreated)/(Vcontrol−Vnitial)*100.
# BL2 and IM9 cells = assay: Calcein viability, PCLX-001 vs dasatinib and ibrutinib; type: cell-based
# Protocol: Calcein assay consists of measuring the cell viability ratio (live cells/total cells and expressed as % viability). Cells were stained with the Nuclear-ID Blue/Red cell viability reagent (GFP-certified, Enzo Life Sciences) to identify total cells, and dead cells while live cells were stained with Calcein AM (Life Technologies) according to manufacturer's instructions. Cell count was performed using a Cytation 5 Cell Imaging Multi-Mode Reader (Biotek Instruments, Inc.) and analysed by Biotek Gen5 Data Analysis software (version 2.09).
# [3] = test system: peripheral blood mononuclear cells (PBMCs); assay: PBMC viability assay; type: cell-based, human; conditions: 96 hr
# Protocol: 2 healthy human research volunteers were recruited for PBMC and lymphocytes isolation from a 20 ml blood collection (patient #1: no diagnosis, no treatment; patient #2: no diagnosis, no treatment). Study protocol was approved by the Health Research Ethics Board of Alberta Cancer Committee (Study title: Evaluations of Fatty AcylTransferases (FATs) in fresh blood and blood forming cells; HREBA.CC-17-0624).
# Mononuclear cells were isolated from peripheral blood by density gradient centrifugation using Ficoll-Paque (GE Healthcare, PA, USA). Lymphocytes were isolated from whole blood samples using EasySep™ lymphocyte isolation kit (Stemcell Technologies, Vancouver, BC, Canada) as per manufacturer's instructions. PBMC and lymphocytes were cultured in RPMI medium with 10% FBS, 100 U/ml penicillin, 0.1 mg/ml streptomycin. Cells were plated at a concentration of 2×10^6 cells/ml.
# [4] = dogs; cited from earlier work
# [5] = Protocol: Data collected were the same as in the Charles River xenograft study—clinical signs, body weight, tumor volume, blood samples from 3 mice/group for hematology and clinical chemistry (ALT, AST, BUN, creatinine, CK), and tissue samples collected and fixed from the same 3 mice. Liver, kidneys, and small intestine also were weighed.
# as §2
# [6] = Mouse IV; cited from earlier work
structure (smiles),measurement,setting,value
Cc1c(N[S+](=O)([O-])c2c(Cl)cc(-c3ccnc(N4CCNCC4)c3)cc2Cl)c(CC(C)C)nn1C [PCLX-001],concentration required to decrease myristoylation,BL2 cells,~0.1 µM
same,mean tumor growth inhibition (TGI),"DOHH2 tumors; 50 mg/kg daily with 5-day interruption, by day 16",95%
same,reduction of tumor size,"DOHH2 tumors; 50 mg/kg daily, by day 7",up to 70%
same,average tumor size,"DOHH2 tumors; 50 mg/kg daily, day 7",44.0±8.1 mm^3
same,IC50,[1],166 nM
same,IC50,[2],≥ 10 µM
same,tumor regression,"BL2 xenografts; 20 mg/kg daily, by day 9",42.5%
same,tumor regression,"BL2 xenografts; 56 mg/kg daily, 13 days",100%
same,tumor regression,"BL2 xenografts; 60 mg/kg daily, 13 days",100%
same,cell death,"BL2 and IM9 cells; BL2 cells, 0.1 and 1.0 μM, 48 hours",less than 25%
same,viability of treated cells,BL2 and IM9 cells; at concentrations that are becoming cytotoxic,at least 75%
same,decrease in PBMC survival,[3]; 0.1 μM,~50%
same,concentration endured by the surviving PBMCs,[3],≤ 10 µM
same,toxicity at high dose levels,[4],hematopoietic toxicity
same,clinical pathology and anatomic pathology,"[5]; 20, 50, 60 mg/kg/day",no clinical pathology or anatomic pathology findings
same,dehydration and body weight,[5]; 50 or 60 mg/kg/day,Dehydration and weight loss
same,clinical signs,"[5]; most mice in groups given PCLX-001 (20, 50, 60 mg/kg/day)",Signs of ill health
same,Clearance,[6],3 mL/min/kg
